From patent US20200179392A1, “Idelalisib for Treating Proliferative Vitreoretinopathy and Abnormal Intraocular Neovascularization” (priority 2016, published 2020)

Tests used:
[1] = system: phosphorylation of Akt at serine 473; assay: Western blot of Akt phosphorylation (S473) in RPEM cells stimulated with vitreous or PDGF; type: cell-based, human
Procedure: (§1) 1B. After growth factor-deprivation, the RPEM cells were pretreated with idelalisib at indicated concentrations, or its vehicle for 30 minutes, and then treated with normal rabbit vitreous diluted (1:2) in DMEM (RV), V: vehicle (0.1% dimethyl sulfoxide) or PDGF-B (10 ng/ml). After the treatment for 30 minutes at 37° C., their lysates were subjected to a western blot analysis using the indicated antibodies. This is representative of three independent experiments. Cells grown to 90% confluence in wells of 24-well plates were serum starved for 24 hours, and then treated with appropriated agents. After two washes with ice-cold phosphate buffered saline (PBS), the cells were lysed in 1× sample buffer diluted with protein extraction buffer (10 mM Tris-HCl, pH 7.4; 5 mM […] (EDTA), 50 mM NaCl, 50 mM NaF, 1% Triton X-100, 20 μg/ml aprotinin, 2 mM Na3VO4, 1 mM phenylmethylsulfonyl fluoride] from 5× sample buffer [25 mM EDTA, 10% sodium dodecyl sulfate (SDS), 500 mM dithiothreitol (DTT), 50% sucrose, 500 mM Tris.HCl (pH=6.8), 0.5% bromophenol blue). The samples were boiled for 5 minutes and then centrifuged for 5 minutes at 13,000×g, 4° C. […] Signal intensity was determined by densitometry using NIH imageJ software^24, 44, 50.

[2] = system: RPEM cells; assay: Cell apoptosis (survival) assay, RPEM cells with vitreous; type: cell-based, human; conditions: idelalisib 5 μM, 48 hours, Annexin V/PI FACS
Procedure: 3B. After RPEM cells reached 80% confluence in 60-mm dishes, the cultured medium was changed to either 3 ml DMEM/F12 or RV supplemented with idelalisib (5 μM) or its vehicle (0.1% dimethyl sulfoxide: DMSO). 48 hours later, the detached cells were washed with phosphate-buffer saline (PBS) and stained with fluorescein isothiocyanate (FITC)-conjugated Annexin V and propidium iodide (PI) and then analyzed by fluorescence-activated cell sorting (FACS). A representative raw data of three experiments below the bar graphs is shown. RPEM cells were seeded into 6 cm-dishes at a density of 2×10^5 cells per dish in DMEM/F12+10% FBS. Following attachment, the cells were treated with DMEM/F12 or RV (1:2 dilution in DMEM/F12) with or without idelalisib ([…]). On day 3, the cells were stained with fluorescein isothiocyanate (FITC)-conjugated annexin V and propidium iodide (PI) following the manufacturer's instructions (BD Biosciences, Palo Alto, Calif.). The cells were analyzed by flow cytometry in a Coulter Beckman XL instrument. At least three independent experiments were performed^24, 44.

[3] = system: activation of Erk; assay: Western blot of vitreous-induced Erk activation in RPEM cells; type: cell-based, human; conditions: idelalisib 10.0 μM (selective dose for PI3Kδ)
Procedure: as §1

[4] = system: angiogenesis (neovascularization) in retina; assay: Mouse model of oxygen-induced retinopathy (OIR); type: in vivo; conditions: P12 mice, intravitreal 1 μl of 50 μM, retinas IB4 stained on P17
Procedure: FIGS. 11A-B. Idelalisib inhibits angiogenesis in a mouse model of oxygen-induced retinopathy (OIR). Litters of P12 mice that had been exposed to 75% oxygen for five days were injected intravitreally with 1 μl ilidelalisib (50 μM) or its vehicle (DMSO). A, On P17, whole-mount-retinas were stained with IB4. B, Analysis of neovascularization (NV) areas from the IB4 stained retinas (n=6). The bar graph data are mean±SD of three retinas. “*” indicates significant difference using an unpaired t test. p<0.05.
C57BL/6J litters on postnatal day (P) 7 were exposed to 75% oxygen until P12 in the oxygen chamber (Biospherix). Oxygen concentration was monitored daily using an oxygen sensor (Advanced Instruments, GPR-20F)^58, 59. On P12, the pups were anesthetized by intraperitoneal injection of 50 mg/kg ketamine hydrochloride and 10 mg/kg xylazine. During intravitreal injections, eyelids of P12 pups were separated by incision. Pupils were dilated using a drop of 1% tropicamide and the eyes were treated with topical proparacaine anesthesia. Intravitreous injections were performed under a microsurgical microscope using glass pipettes with a diameter of approximately 150 μm at the tip after the eye were punctured at the upper nasal limbus using a BD insulin syringe with the BD ultra-fine needle. One μl of idelalisib or DMSO was injected. […]

[5] = system: RPEM cells; assay: Cell migration (scratch) assay, RPEM cells with vitreous; type: cell-based, human; conditions: idelalisib 5 μM, 16 hours
Procedure: 3C. After the RPEM cells in a 12-well plate reached 90% confluence, the cultured wells were scratched with a 200 μl pipet tip and treated with RV supplemented with idelalisib (5 μM) or its vehicle. 16 hours later the pictures of the cells were taken and analyzed. A representative raw data of three experiments below the bar graphs is shown. Scale bar: 500 μm. RPEM cells in a 12-well plate were grown to near confluence, and then the wells with 90% confluent cells were scratched with 200 μl pipet tip. The cells were washed with PBS and treated with DMEM/F12 or RV (1:2 dilution in DMEM/F12) with or without idelalisib (5 μM). The scratched area was photographed to capture the initial width and photographed again 16 hours later. Analysis was conducted using Adobe Photoshop CS4 software. At least three independent experiments were performed.

In the case of `CC[C@H](Nc1ncnc2[nH]cnc12)c1nc2cccc(F)c2c(=O)n1-c1ccccc1` [idelalisib], the “inhibition of vitreous-stimulated phosphorylation of Akt at serine 473” value ([1]; idelalisib 1.0 μM, 30 min pretreatment, rabbit vitreous 1:2 for 30 min) is reported as “completely inhibited”, the “inhibition of PDGF-stimulated activation of Akt” value ([1]; idelalisib 10.0 μM (selective dose for PI3Kδ), PDGF-B 10 ng/ml) is reported as “neither inhibited” and the “effect on vitreous-induced survival of RPEM cells” value [2] is reported as “prevented”. For the same compound, the “inhibition of vitreous-induced activation of Erk” value [3] was “neither inhibited”, the “effect on angiogenesis in oxygen-induced retinopathy” value [4] was “abrogated” and the “effect on vitreous-induced migration of RPEM cells” value [5] was “prevented”.
